What was measured:
[1] = TNS fluorescence apparent pKa protocol for saRNA-LNP; assay type: physicochemical; conditions: saRNA-LNPs, TNS 6 μM, to 9.5, 25° C., EC50 of sigmoidal curve
Experimental: In a black 96-well plate, solutions of saRNA-LNP (final assay concentration 2 μg/mL total RNA) in a series of buffers ranging from pH 4 to 9.5 were prepared. Buffers between pH4 to 7.6 were prepared from disodium phosphate and citric acid. Buffers from 7.8 to 9.5 were prepared by titrating tris buffer with 10 N sodium hydroxide. To each well was added 6-(p-Toluidino)-2-naphthalenesulfonic acid sodium salt (TNS) in water to a final assay concentration of 6 μM. The fluorescence was read on a plate reader at 25° C. with an excitation setting of 321 nm and an emission setting of 445 nm. The intensity values were plotted as a function of pH using GraphPad Prism and were fit with a sigmoidal dose response curve. The apparent pKa was determined as the EC50 of this curve where half of the ionizable amines are expected to be protonated.

Balb/c mice = test: Mouse immunogenicity study, antigen-specific T cells by intracellular cytokine staining; assay type: in vivo; conditions: prime-boost, LNPs with saRNA expressing H5 and N1, peptide stimulation, FIG. 6
BHK-V cells = test: In vitro potency of saRNA-LNPs (antigen-expressing cells, flow cytometry); assay type: cell-based; conditions: FIG. 3
Experimental: The ability of the saRNA-LNPs to transfect cultured cells was characterized using an in vitro assay based on the percentage of cells expressing the antigen of interest. Specifically, 1 million BHK-V cells were co-incubated with saRNA-LNP of varying concentration (highest 50 ng per well, lowest 0.39 ng per well) in 0.3 mL of media for 17-19 hours at 37° C. with 5% CO2. Subsequently, the cells were scraped from the dish to form a single-cell suspension, fixed and permeabilized (BD Cytofix/Perm kit), and then stained with fluorophore-labeled antigen-specific antibodies against H5 and N1 (for saRNA expressing both H5 and N1). Luciferase expression was not measured for saRNA expressing both H5 and luciferase. The percentage of single or double antigen positive cells was quantified using a BD Accuri flow cytometer. […] The slope of that line multiplied by −100,000 was reported as the LNP potency. Alternatively, a similar assay was performed in a 96-well using BHK-21 cells and analysed using a Cytation 5 Cell Imaging Multimode Reader (Agilent). The results of this assay were analysed in the same way as described for the flow cytometry assay.

CCCCCCCCCC(CCCCCCCCC(=O)OCC(CCCC)CCCCCC)OC(=O)CCCN(C)C (stereo not shown) [Compound 11]
pKa [1]: 6.25 | activated antigen-specific CD8 T cells (Balb/c mice): measurable levels | LNP potency (in vitro), comparison of the two LNPs (BHK-V cells; both saRNA constructs examined): trended higher in potency | ability to transfect BHK-V cells in vitro (BHK-V cells; saRNA-LNP, 17-19 hours): able to transfect
